Here are results for 31 compounds from patent US11541132B2, “Radiolabeled compounds” (Hoffmann-La Roche Inc., priority 2017, dated 2023).

Like-named read-outs stand apart in the source and are kept apart here.

The target in experiment [1] is T1, native aSyn aggregates in A30P transgenic mouse brain sections (Homo sapiens, UniProt P37840, A30P).
T1 construct: from tissue; host or cells: brain sections (midbrain and pons as ROI) of A30P transgenic mice, line B6.D2-Tg(Thy1-SNCA*30P)31Pjk
The experiment is described as follows: aSyn in vitro displacement assay ([3H]Example-3 autoradiography). It is filed as binding, mutant human aSyn gene). Conditions: for inhibition at 1 µM: read-out: PCT_INHIB A30P @ 1 μM (% displacement of [3H]Example-3).

The target of experiment [2] is T2, native Aβ aggregates in human AD brain tissue sections (Homo sapiens, UniProt P05067).
T2 construct: native Aβ aggregates in human AD brain tissue samples; from tissue; host or cells: human AD brain tissue sections
The experiment is described as follows: Aβ in vitro displacement assay (selectivity counterscreen, [3H]Example 3 autoradiography). The following applies: for inhibition at 1 µM: read-out: sel. counterscreen PCT_INHIB AD @ 1 μM (% displacement of [3H]Example 3). It is filed as binding.

The mark [3] stands for this setting: 1 μM compound, 3 nM [3H]Example-3, A30P transgenic mouse brain sections.
Where [4] appears, read: 1 μM compound, 3 nM [3H]Example 3, human AD brain sections.

T2 sequence (P05067 672-713 limits assumed): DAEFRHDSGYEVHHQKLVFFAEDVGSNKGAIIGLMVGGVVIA

For the compound `COc1ccc(C(=O)Nc2ccc(N3CCN(c4ccc(C#N)c(OC)c4)CC3)cc2)cc1` [Example 140, N-(4-(4-(4-Cyano-3-methoxyphenyl)piperazin-1-yl)phenyl)-4-methoxybenzamide], the inhibition at 1 µM amounted to 94% in experiment [1] (setting [3]) and 93% in experiment [2] (setting [4]).

With `O=C(Nc1ccc(N2CCN(c3ccccn3)CC2)cc1)c1ccc(OCCOCCF)cc1` [Example 12, 4-(2-(2-fluoroethoxy)ethoxy)-N-(4-(4-(pyridin-2-yl)piperazin-1-yl)phenyl) benzamide], the inhibition at 1 µM in experiment [1] (setting [3]) and in experiment [2] (setting [4]) was 99% each time.

On to `COc1ccc(C(=O)Nc2ccc(N3CCN(c4ccc(C#N)cn4)CC3)c(F)c2)cc1` [Example 107, N-[4-[4-(5-Cyano-2-pyridyl)piperazin-1-yl]-3-fluoro-phenyl]-4-methoxy-benzamide], for which the inhibition at 1 µM in experiment [1] (setting [3]) and in experiment [2] (setting [4]) was 96% each time.

Take `COc1ccc(C(=O)Nc2ccc(N3CCN(c4ccc(S(C)(=O)=O)cc4)CC3)cc2)cc1` [Example 111, 4-Methoxy-N-[4-[4-(4-methylsulfonylphenyl)piperazin-1-yl]phenyl]benzamide]: the inhibition at 1 µM in experiment [1] (setting [3]) came to 94%; in experiment [2] (setting [4]), 92%.

For `Cc1ccc(C(=O)Nc2cnc(N3CCN(c4ccccn4)CC3)nc2)nc1` [Example 75, 5-Methyl-N-(2-(4-(pyridin-2-yl)piperazin-1-yl)pyrimidin-5-yl)picolinamide], the inhibition at 1 µM in experiment [1] (setting [3]) and in experiment [2] (setting [4]) was 95% throughout.

For `N#Cc1ccc(N2CCN(c3ccc(NC(=O)c4ccncc4)cc3)CC2)nc1` [Example 161, N-(4-(4-(5-Cyanopyridin-2-yl)piperazin-1-yl)phenyl)isonicotinamide], the values for the inhibition at 1 µM in experiment [1] (setting [3]) and in experiment [2] (setting [4]) were 84% and 87%, respectively.

`O=C(Nc1ccc(N2CCN(c3ccccn3)CC2)cc1)c1ccn2ccnc2c1` [Example 16, N-(4-(4-(Pyridin-2-yl)piperazin-1-yl)phenyl)imidazo[1,2-a]pyridine-7-carboxamide]: the inhibition at 1 µM worked out at 87% in experiment [1] (setting [3]) and 97% in experiment [2] (setting [4]).

Consider `COc1ccc(C(=O)Nc2ccc(N3CCN(c4ccc(F)cn4)CC3)cc2)cc1` [Example 141, N-(4-(4-(5-Fluoropyridin-2-yl)piperazin-1-yl)phenyl)-4-methoxybenzamide], for which the inhibition at 1 µM was 96% in experiment [1] (setting [3]) and 94% in experiment [2] (setting [4]).

For the compound `COc1ccc(C(=O)Nc2ccc(N3CCN(c4cc(C#N)ccn4)CC3)cc2)cc1` [Example 65, N-[4-[4-(4-Cyano-2-pyridyl)piperazin-1-yl]phenyl]-4-methoxy-benzamide], the inhibition at 1 µM in experiment [1] (setting [3]) was 100%; in experiment [2] (setting [4]) it was 99%.

Take `COc1ccc(C(=O)Nc2ccc(N3CCN(c4ccc(F)cc4)CC3)cc2)cc1` [Example 105, N-[4-[4-(4-Fluorophenyl)piperazin-1-yl]phenyl]-4-methoxy-benzamide]: the inhibition at 1 µM in experiment [1] (setting [3]) was found to be 100%; in experiment [2] (setting [4]), 98%.

Take `C#CCOc1ccc(C(=O)Nc2ccc(N3CCN(c4ccccn4)CC3)cc2)cc1` [Example 177, 4-Prop-2-ynoxy-N-[4-[4-(2-pyridyl)piperazin-1-yl]phenyl]benzamide]: the inhibition at 3 µM turned out to be 96% in experiment [1] (3 μM compound, 3 nM [3H]Example-3, A30P transgenic mouse brain sections, read-out: PCT_INHIB A30P @ 3 μM) and 97% in experiment [2] (3 μM compound, 3 nM [3H]Example 3, human AD brain sections, read-out: sel. counterscreen PCT_INHIB AD @ 3 μM).

For the compound `COc1ccc(C(=O)Nc2ccc(N3CCN(c4ccc(C#N)cc4)CC3)cc2)cc1` [Example 57, N-[4-[4-(4-Cyanophenyl)piperazin-1-yl]phenyl]-4-methoxy-benzamide], the results for the inhibition at 1 µM in experiment [1] (setting [3]) and in experiment [2] (setting [4]) were 102% and 101%, respectively.

As for `O=C(Nc1ccc(N2CCN(c3ccccn3)CC2)nc1)c1ccc(N2CCOCC2)cc1` [Example 32, 4-Morpholino-N-[6-[4-(2-pyridyl)piperazin-1-yl]-3-pyridyl]benzamide], the figures for the inhibition at 1 µM in experiment [1] (setting [3]) and in experiment [2] (setting [4]) were 87% and 88%, respectively.

As to `CN(C)c1ccc(C(=O)Nc2ccc(N3CCN(c4ccccn4)CC3)nn2)cc1` [Example 36, 4-(Dimethylamino)-N-[6-[4-(2-pyridyl)piperazin-1-yl]pyridazin-3-yl]benzamide], the inhibition at 1 µM in experiment [1] (setting [3]) was found to be 86%; in experiment [2] (setting [4]) it was 91%.

As for `COc1ccc(C(=O)Nc2ccc(N3CCN(c4ccc(C#N)cn4)CC3)c(C)c2)cc1` [Example 113, N-[4-[4-(5-Cyano-2-pyridyl)piperazin-1-yl]-3-methyl-phenyl]-4-methoxy-benzamide], the results for the inhibition at 1 µM in experiment [1] (setting [3]) and in experiment [2] (setting [4]) were 87% and 79%, respectively.

For `CC(C)(C)[Si](C)(C)OC(CF)COc1ccc(C(=O)Nc2ccc(N3CCN(c4ccc(C#N)cc4)CC3)cc2)cc1` (racemic) [Example 127, rac-4-(2-((tert-Butyldimethylsilyl)oxy)-3-fluoropropoxy)-N-(4-(4-(4-cyanophenyl)piperazin-1-yl)phenyl)benzamide], the inhibition at 1 µM in experiment [1] is 81%; in experiment [2] it was 78%.

Take `COc1ccc(C(=O)Nc2ccc(N3CCN(c4ccccn4)CC3)nn2)c(F)c1` [Example 40, 2-Fluoro-4-methoxy-N-[6-[4-(2-pyridyl)piperazin-1-yl]pyridazin-3-yl]benzamide]: the inhibition at 1 µM worked out at 86% in experiment [1] (setting [3]) and 92% in experiment [2] (setting [4]).

As to `O=C(Nc1ccc(N2CCN(c3ccccn3)CC2)cn1)c1ccc(N2CCOCC2)cc1` [Example 51, 4-Morpholino-N-(5-(4-(pyridin-2-yl)piperazin-1-yl)pyridin-2-yl)benzamide], the inhibition at 1 µM in experiment [1] (setting [3]) and in experiment [2] (setting [4]) was 94% throughout.

In the case of `Cc1ccc(C(=O)Nc2ccc(N3CCN(c4ccccn4)CC3)cc2)c(F)c1` [Example 10, 2-Fluoro-4-methyl-N-(4-(4-(pyridin-2-yl)piperazin-1-yl)phenyl)benzamide], the inhibition at 1 µM in experiment [1] (setting [3]) is 83%; in experiment [2] (setting [4]), 81%.

Turning to `Cc1ccc(C(=O)Nc2ccc(N3CCN(c4ccccn4)CC3)cn2)c(F)c1` [Example 52, 2-Fluoro-4-methyl-N-(5-(4-(pyridin-2-yl)piperazin-1-yl)pyridin-2-yl)benzamide], the inhibition at 1 µM in experiment [1] (setting [3]) was 92%; in experiment [2] (setting [4]), 95%.

In the case of `O=C(Nc1ccc(N2CCN(c3ccccn3)CC2)cc1)c1ccc(OCCF)cc1` [Example 118, 4-(2-Fluoroethoxy)-N-[4-[4-(2-pyridyl)piperazin-1-yl]phenyl]benzamide], the inhibition at 1 µM was 88% in experiment [1] (setting [3]) and 92% in experiment [2] (setting [4]).

`COc1ccc(C(=O)Nc2ccc(N3CCN(c4ccc(C#N)cn4)CC3)cc2)cc1` [Example 50, N-(4-(4-(5-Cyanopyridin-2-yl)piperazin-1-yl)phenyl)-4-methoxybenzamide]: the inhibition at 1 µM was determined as 97% in experiment [1] (setting [3]) and 86% in experiment [2] (setting [4]).

Regarding `COc1ccc(C(=O)Nc2ccc(N3CCN(c4cnc(C#N)cn4)CC3)cc2)cc1` [Example 147, N-(4-(4-(5-Cyanopyrazin-2-yl)piperazin-1-yl)phenyl)-4-methoxybenzamide], the inhibition at 1 µM in experiment [1] (setting [3]) worked out at 88%; in experiment [2] (setting [4]) it was 91%.

On to `COc1ccc(C(=O)Nc2ccc(N3CCN(c4ccc(C#N)nc4)CC3)cc2)nc1` [Example 173, N-(4-(4-(6-Cyanopyridin-3-yl)piperazin-1-yl)phenyl)-5-methoxypicolinamide], for which the inhibition at 1 µM stood at 83% in experiment [1] (setting [3]) and 82% in experiment [2] (setting [4]).

Regarding `O=C(Nc1ccc(N2CCN(c3ccccn3)CC2)cn1)c1ccccc1F` [Example 47, 2-Fluoro-N-(5-(4-(pyridin-2-yl)piperazin-1-yl)pyridin-2-yl)benzamide], the results for the inhibition at 1 µM in experiment [1] (setting [3]) and in experiment [2] (setting [4]) were 83% and 94%, respectively.

As for `N#Cc1ccc(N2CCN(c3ccc(NC(=O)c4ccc(N5CCOCC5)cc4)cc3)CC2)cc1` [Example 92, N-(4-(4-(4-Cyanophenyl)piperazin-1-yl)phenyl)-4-morpholinobenzamide], the inhibition at 1 µM was determined as 96% in experiment [1] (setting [3]) and 86% in experiment [2] (setting [4]).

With `COc1ccc(C(=O)Nc2ccc(N3CCN(c4cccnc4)CC3)cc2)nc1` [Example 77, 5-Methoxy-N-(4-(4-(pyridin-3-yl)piperazin-1-yl)phenyl)picolinamide], the inhibition at 1 µM was found to be 98% in experiment [1] (setting [3]) and 96% in experiment [2] (setting [4]).

For the compound `COc1ccc(C(=O)Nc2ccc(N3CCN(c4ccnc(OC)c4)CC3)cc2)cc1` [Example 155, 4-Methoxy-N-(4-(4-(2-methoxypyridin-4-yl)piperazin-1-yl)phenyl)benzamide], the inhibition at 1 µM in experiment [1] (setting [3]) stood at 85%; in experiment [2] (setting [4]), 97%.

In the case of `Cc1ccc(C(=O)Nc2ccc(N3CCN(c4cccnc4)CC3)cc2)cc1` [Example 37, 4-Methyl-N-(4-(4-(pyridin-3-yl)piperazin-1-yl)phenyl)benzamide], the inhibition at 1 µM in experiment [1] (setting [3]) was determined as 94%; in experiment [2] (setting [4]) it was 97%.

In the case of `COc1ccc(C(=O)Nc2ccc(N3CCN(c4ccc(C#N)cc4C)CC3)cc2)cc1` [Example 144, N-(4-(4-(4-Cyano-2-methylphenyl)piperazin-1-yl)phenyl)-4-methoxybenzamide], the inhibition at 1 µM in experiment [1] (setting [3]) was determined as 89%; in experiment [2] (setting [4]), 92%.

With `N#Cc1ccc(N2CCN(c3ccc(NC(=O)c4ccc(OCCOCCF)cc4)cc3)CC2)nc1` [Example 121, N-(4-(4-(5-cyanopyridin-2-yl)piperazin-1-yl)phenyl)-4-(2-(2-fluoroethoxy)ethoxy)benzamide], the inhibition at 1 µM in experiment [1] (setting [3]) came to 87%; in experiment [2] (setting [4]) it was 86%.
